Source: the NIST ThermoML archive (doi:10.1021/je800579j)

Experiment: refractive index (Na D-line) (dimensionless); xn = mol fraction of the nth substance listed
Details: Liquid, Standard Abbe refractometry

Cc1ccccc1C [1,2-dimethylbenzene] + C1COCCO1
refractive index
Details | 288.15 K | 293.15 K | 298.15 K | 303.15 K | 308.15 K | 313.15 K | 318.15 K
x2 = 0 | 1.5083 | 1.5055 | 1.5029 | 1.5002 | 1.4975 | 1.4948 | 1.4921
x2 = 0.0672 | 1.5029 | 1.5001 | 1.4974 | 1.4946 | 1.4918 | 1.489 | 1.4862
x2 = 0.1391 | 1.4972 | 1.4944 | 1.4917 | 1.4889 | 1.4861 | 1.4833 | 1.4804
x2 = 0.2103 | 1.4914 | 1.4886 | 1.4858 | 1.4831 | 1.4803 | 1.4775 | 1.4746
x2 = 0.2853 | 1.4853 | 1.4825 | 1.4798 | 1.4771 | 1.4743 | 1.4715 | 1.4687
x2 = 0.3543 | 1.4796 | 1.4769 | 1.4742 | 1.4714 | 1.4687 | 1.4659 | 1.4632
x2 = 0.4293 | 1.4734 | 1.4707 | 1.4681 | 1.4654 | 1.4627 | 1.46 | 1.4573
x2 = 0.5092 | 1.4667 | 1.4641 | 1.4615 | 1.4589 | 1.4562 | 1.4535 | 1.4509
x2 = 0.581 | 1.4606 | 1.458 | 1.4554 | 1.4528 | 1.4502 | 1.4476 | 1.445
x2 = 0.6518 | 1.4545 | 1.452 | 1.4495 | 1.4469 | 1.4444 | 1.4418 | 1.4392
x2 = 0.7248 | 1.4482 | 1.4457 | 1.4433 | 1.4408 | 1.4383 | 1.4357 | 1.4332
x2 = 0.7888 | 1.4427 | 1.4402 | 1.4378 | 1.4354 | 1.4329 | 1.4304 | 1.4279
x2 = 0.8595 | 1.4365 | 1.4342 | 1.4318 | 1.4295 | 1.4271 | 1.4246 | 1.4221
x2 = 0.9298 | 1.4305 | 1.4282 | 1.4259 | 1.4236 | 1.4213 | 1.419 | 1.4166
